This note sets out measurements from PubChem BioAssay (NCI).

Some test systems named below: SNB-19 CNS; MALME-3M melanoma; SK-MEL-5 melanoma; COLO 205 colon; SF-539 CNS; A549 NSCLC; SK-MEL-2 melanoma; BT-549 breast; TK-10 renal; HL-60(TB) leukemia.
Common to all, as to assay: NCI tumour cell line growth inhibition, 48 h

Values joined by “and” are separate entries in the source; they are usually repeats but may differ in a detail not shown here. Equal entries are not always repeated.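 A five-concentration, 48-hour dose response in 96-well plates underlies each endpoint, interpolated linearly between surrounding concentrations. GI50 = concentration required for 50% inhibition of growth. TGI is the concentration that stops growth completely.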

With `Clc1ccc(-c2cnc3c(-c4ccnc(N5CCNCC5)c4)cnn3c2)cc1`, the GI50 in the experiment on SNB-19 CNS is 2.02 µM; in the experiment with MALME-3M melanoma, 1.86 µM; with SK-MEL-5 melanoma it was 1.79 µM; in the experiment with COLO 205 colon it was 2.14 µM; in the experiment on SF-539 CNS, 1.74 µM; in the experiment on A549 NSCLC, 1.96 µM. For the same compound, the GI50 in the experiment on SK-MEL-2 melanoma is 0.561 µM; with BT-549 breast, 1.6 µM; with TK-10 renal it was 1.99 µM; with HL-60(TB) leukemia it was 1.25 µM. Moreover, the TGI turned out to be 4.03 µM with SNB-19 CNS; 3.31 µM with MALME-3M melanoma; 3.22 µM with SK-MEL-5 melanoma; 3.77 µM in the experiment on COLO 205 colon; 3.29 µM with SF-539 CNS; 3.69 µM in the experiment on A549 NSCLC. The TGI is 1.69 µM in the experiment on SK-MEL-2 melanoma, 3.02 µM in the experiment on BT-549 breast, 3.43 µM in the experiment with TK-10 renal and 3.26 µM in the experiment with HL-60(TB) leukemia.
Turning to `CCOC(=O)c1c(NN2CCN(CC(F)(F)F)CC2)oc(/C=C2\C=Nc3ncccc32)c1O`, the GI50 was 20.7 µM in the experiment on SNB-19 CNS; 13 µM with MALME-3M melanoma; 2.55 µM with SK-MEL-5 melanoma; 0.76 µM with COLO 205 colon; 2.33 µM with SF-539 CNS; 5.2 µM in the experiment with A549 NSCLC. The GI50 in the experiment on SK-MEL-2 melanoma is 2.25 µM; with BT-549 breast, 1.59 µM; with TK-10 renal, 3.37 µM; with HL-60(TB) leukemia, 1.85 µM. Moreover, the TGI was above 100 µM in the experiment on SNB-19 CNS; 29.4 µM with MALME-3M melanoma; 10.6 µM with SK-MEL-5 melanoma; 11.1 µM in the experiment on COLO 205 colon; 13.9 µM in the experiment with SF-539 CNS; 49.1 µM with A549 NSCLC. Further, the TGI in the experiment on SK-MEL-2 melanoma was determined as 4.8 µM; in the experiment with BT-549 breast it was 5.68 µM; with TK-10 renal, 24 µM; with HL-60(TB) leukemia, 4.67 µM.
On to `O=C1CN=C(c2ccc[nH]2)c2cc(Cl)ccc2N1`, for which the GI50 in the experiment on SNB-19 CNS, in the experiment on MALME-3M melanoma, in the experiment with SK-MEL-5 melanoma, in the experiment on COLO 205 colon, with SF-539 CNS and in the experiment on A549 NSCLC was above 100 µM throughout. Also, the GI50 with SK-MEL-2 melanoma is above 100 µM; in the experiment with BT-549 breast it was 53.3 µM; with TK-10 renal it was above 100 µM; in the experiment with HL-60(TB) leukemia, 4.16 µM. Besides, the TGI in the experiment with SNB-19 CNS, in the experiment with MALME-3M melanoma, in the experiment on SK-MEL-5 melanoma, in the experiment with COLO 205 colon, in the experiment with SF-539 CNS and in the experiment with A549 NSCLC was above 100 µM each time. Moreover, the TGI in the experiment with SK-MEL-2 melanoma, with BT-549 breast, in the experiment on TK-10 renal and in the experiment with HL-60(TB) leukemia was above 100 µM each time.
Take `COc1ccc(Sc2[nH]c(C=O)c3ccccc23)cc1`: the GI50 with SNB-19 CNS is 4.78 µM; with MALME-3M melanoma, 14.2 µM; with SK-MEL-5 melanoma it was 12.9 µM; in the experiment on COLO 205 colon, 0.664 µM; with SF-539 CNS it was 10.9 µM; with A549 NSCLC, 13.3 µM. Moreover, the GI50 in the experiment with SK-MEL-2 melanoma was 13.6 µM; in the experiment on BT-549 breast it was 2.03 µM; in the experiment on TK-10 renal it was 10.6 µM; in the experiment with HL-60(TB) leukemia, 5.09 µM. The TGI was 18.5 µM in the experiment with SNB-19 CNS; 38.8 µM in the experiment on MALME-3M melanoma; 25.5 µM in the experiment with SK-MEL-5 melanoma; 6 µM with COLO 205 colon; 23 µM in the experiment on SF-539 CNS; above 100 µM in the experiment with A549 NSCLC. In addition, the TGI in the experiment with SK-MEL-2 melanoma stood at 32.4 µM; in the experiment with BT-549 breast it was 12.1 µM; in the experiment on TK-10 renal, 45.1 µM; in the experiment with HL-60(TB) leukemia, 28.4 µM.
Regarding `Cc1ccc(-c2cc(C(=O)Nc3ccc(S(=O)(=O)N4CCCCC4)cc3)[nH]n2)c(O)c1`, the GI50 in the experiment with SNB-19 CNS, with MALME-3M melanoma, with SK-MEL-5 melanoma, in the experiment with COLO 205 colon, in the experiment on SF-539 CNS and with A549 NSCLC was above 100 µM throughout. In addition, the GI50 in the experiment with SK-MEL-2 melanoma, with BT-549 breast, in the experiment with TK-10 renal and in the experiment on HL-60(TB) leukemia was above 100 µM throughout. Also, the TGI in the experiment on SNB-19 CNS, with MALME-3M melanoma, in the experiment with SK-MEL-5 melanoma, in the experiment on COLO 205 colon, with SF-539 CNS and with A549 NSCLC was above 100 µM in each case. In addition, the TGI in the experiment with SK-MEL-2 melanoma, in the experiment with BT-549 breast, in the experiment with TK-10 renal and in the experiment on HL-60(TB) leukemia was above 100 µM each time.
On to `c1cc(OCCN2CCCC2)ccc1CNc1ccc2nc(CCC3CCCCC3)[nH]c2c1`, for which the GI50 with SNB-19 CNS was 2.91 µM; in the experiment with MALME-3M melanoma it was 1.57 µM; with SK-MEL-5 melanoma it was 1.68 µM; in the experiment with COLO 205 colon it was 1.7 µM; in the experiment on SF-539 CNS, 1.51 µM; in the experiment with A549 NSCLC it was 2.47 µM. Further, the GI50 in the experiment with SK-MEL-2 melanoma is 1.84 µM; with BT-549 breast it was 1.56 µM; with TK-10 renal it was 2.98 µM; in the experiment with HL-60(TB) leukemia, 1.79 µM. Further, the TGI in the experiment with SNB-19 CNS is 10 µM; with MALME-3M melanoma, 3.07 µM; with SK-MEL-5 melanoma it was 3.1 µM; in the experiment on COLO 205 colon, 3.35 µM; in the experiment with SF-539 CNS, 3 µM; with A549 NSCLC it was 7.52 µM. The TGI in the experiment with SK-MEL-2 melanoma stood at 3.55 µM; in the experiment with BT-549 breast, 3.17 µM; in the experiment with TK-10 renal it was 7.97 µM; with HL-60(TB) leukemia, 3.72 µM.
As to `COc1cc2c3c(n(CCCN=[N+]=[N-])c(=O)c2cc1OC)-c1ccc(F)cc1C3=O`, the GI50 was 4.35 µM with SNB-19 CNS; above 100 µM in the experiment on MALME-3M melanoma; 4.25 µM in the experiment on SK-MEL-5 melanoma; 23.8 µM in the experiment on COLO 205 colon; 3.23 µM in the experiment on SF-539 CNS; 48 µM with A549 NSCLC. Moreover, the GI50 was above 100 µM with SK-MEL-2 melanoma, 12.4 µM with BT-549 breast, 73.7 µM in the experiment on TK-10 renal and 44.4 µM with HL-60(TB) leukemia. Also, the TGI with SNB-19 CNS is above 100 µM; in the experiment with MALME-3M melanoma, above 100 µM; in the experiment on SK-MEL-5 melanoma it was 17.9 µM; in the experiment with COLO 205 colon, above 100 µM; in the experiment with SF-539 CNS, 12.4 µM; with A549 NSCLC, above 100 µM. Also, the TGI in the experiment with SK-MEL-2 melanoma, with BT-549 breast, in the experiment with TK-10 renal and in the experiment with HL-60(TB) leukemia was above 100 µM throughout.
As for `CCn1nc(C2CCN(C(=O)CCO)CC2)nc1-c1cnc(N)c(-c2nnc(C(C)(C)C)o2)n1`, the GI50 in the experiment on SNB-19 CNS is above 100 µM; in the experiment on MALME-3M melanoma, 3.77 µM; with SK-MEL-5 melanoma, 11.5 µM; in the experiment on COLO 205 colon, 2.85 µM; with SF-539 CNS, 5.74 µM; with A549 NSCLC it was 2.26 µM. Moreover, the GI50 with SK-MEL-2 melanoma was 30.9 µM; in the experiment with BT-549 breast it was 7.28 µM; in the experiment on TK-10 renal it was 1.95 µM; with HL-60(TB) leukemia it was 0.263 µM. The TGI with SNB-19 CNS was above 100 µM; with MALME-3M melanoma it was above 100 µM; with SK-MEL-5 melanoma it was 31.3 µM; in the experiment on COLO 205 colon, 21.5 µM; in the experiment on SF-539 CNS, above 100 µM; in the experiment on A549 NSCLC it was above 100 µM. Moreover, the TGI in the experiment on SK-MEL-2 melanoma was above 100 µM; in the experiment with BT-549 breast, above 100 µM; in the experiment with TK-10 renal it was above 100 µM; with HL-60(TB) leukemia, 97.5 µM.
For `COc1cc(CSc2nc3ccc(Cl)cc3c(=O)n2Cc2ccccc2)cc(OC)c1OC`, the GI50 in the experiment on SNB-19 CNS was 5.46 µM; in the experiment on MALME-3M melanoma, 5.81 µM; with SK-MEL-5 melanoma, 2.41 µM; in the experiment on COLO 205 colon, 1.56 µM; in the experiment with SF-539 CNS it was 2.57 µM; in the experiment with A549 NSCLC, 4.03 µM. Besides, the GI50 is 6.57 µM in the experiment on SK-MEL-2 melanoma, 6.19 µM with BT-549 breast, 10.3 µM in the experiment on TK-10 renal and 4.11 µM in the experiment on HL-60(TB) leukemia. Besides, the TGI with SNB-19 CNS is above 100 µM; with MALME-3M melanoma it was 39.1 µM; in the experiment on SK-MEL-5 melanoma, 17.1 µM; in the experiment on COLO 205 colon it was 4.05 µM; in the experiment on SF-539 CNS, 9.34 µM; with A549 NSCLC it was above 100 µM. The TGI with SK-MEL-2 melanoma was 59.4 µM; with BT-549 breast it was 90.6 µM; in the experiment on TK-10 renal, 51.8 µM; in the experiment with HL-60(TB) leukemia it was above 100 µM.
Consider `CC(=O)O[C@@H]1c2c(c3c(=O)c4cccc(O)c4c(=O)c=3c2=[N+]=[N-])[C@H](OC(C)=O)[C@@H](OC(C)=O)[C@]1(C)O`, for which the GI50 in the experiment with SNB-19 CNS is 0.689 µM; in the experiment with MALME-3M melanoma, 0.269 µM; in the experiment on SK-MEL-5 melanoma it was 0.112 µM; with COLO 205 colon, 0.605 µM and 0.16 µM; in the experiment with SF-539 CNS, 0.162 µM; with A549 NSCLC, 0.0518 µM. Moreover, the GI50 with SK-MEL-2 melanoma was 0.495 µM; with TK-10 renal, 0.191 µM; in the experiment on HL-60(TB) leukemia, 0.172 µM. In addition, the TGI in the experiment on SNB-19 CNS was 2.35 µM and 3.51 µM; in the experiment with MALME-3M melanoma, 0.929 µM and 0.972 µM; in the experiment on SK-MEL-5 melanoma, 1.18 µM and 0.273 µM; in the experiment on COLO 205 colon, 1.29 µM and 0.296 µM; in the experiment on SF-539 CNS, 1.14 µM and 0.316 µM; in the experiment with A549 NSCLC it was 1.16 µM and 0.228 µM. In addition, the TGI is 1.63 µM and 1.18 µM with SK-MEL-2 melanoma; 1.33 µM with BT-549 breast; 1.14 µM and 0.365 µM in the experiment on TK-10 renal.
